In US8759011B2, “Assay system for determining binding of hydrophobic drugs” (Nederlandse Organisatie voor …, priority 2009, dated 2014):

Test system: human plasma
Test: plasma binding by partition extraction in dimethylsiloxane-coated 96-well plates
Assay type: in vitro ADME
Settings: for counts in the polymer coating: one plate
Procedure: 96-wells deepwell plates (lot 1450-401 Perkin-Elmer Lifesciences) were coated with dimethylsiloxane by making the solutions A-H here below in n-hexane. The used dimethylsiloxane (Silicone rubber, GE Silicones, Bergen op Zoom, The Netherlands) has a density of 1.06. Solution H contains 9.54 g dimethylsiloxane in 300 ml n-hexane.
From solutions A-H 100 μl is pipetted in row A-H of each plate. Plates were dried to air for minimally 18 hours (overnight).
To each dilution of plasma (solutions 1-12) an identical amount of the compound to be tested is added (about […]/200 μl solution). […] The solutions are incubated with the compound overnight at 4°.
The plasma solutions 1-12 are added to corresponding columns 1-12 of each plate (200 μl/well). Also 200 μl was added to a separate vessel to be able to correct for (plasma concentration dependent) solubilization. The next day the plates are emptied, washed once with aqua bidest and dried. When sufficient dry in all wells 200 μl counting solution (Optiphase Hisafe 2, Perkin Elmer Lifesciences) is added and the plates are covered. After incubation for minimally 4 hours under gently shaking the radioactivity in each plate is determined using liquid scintillation counting with a MicroBeta device (Perkin Elmer).
Additionally a total count was determined for each well. The total count is the count in the polymer coating+the count in the remaining fluid. The latter was determined by isolating 25 μl from solution in each well prior to emptying, and mixing with Optiphase (Perkin Elmer) followed by liquid scintillation counting.
1. For each datapoint for which the total count was determined, the recovery of total radioactivity was determined by comparing with the counts of the reference spiking solution. Cells with a total recovery <75% were excluded from further data analysis.
2. From all rows containing polymer, the a-specific binding, i.e. the corresponding counts from the row without polymer, was substracted.
3. Curve fitting was applied using the following formula for each cell:
Predicted counts in coating=Tc/((1/ffp+1/fp−1)×(fp×Vw)/Kpdms/Vp)), where
The above formula was fitted using ffp and Kpdms target parameters to be optimized using the least squares regression method over all wells that were included in the data analysis, by calculating the squared difference between the measured counts in the coating and the predicted counts in the coating. Results

Structure (SMILES): C=C1CC[C@H](O)C/C1=C/C=C1\CCC[C@]2(C)[C@@H]([C@H](C)CCCC(C)(C)O)CC[C@@H]12 [25-hydroxy vitamin D3]
- Free fraction ± s.d. (fitted free fraction for 100% plasma, ratio between free fraction and total concentration, average of six 96 well plates): 0.000502 ± 0.000060
- counts in the polymer coating (plasma 0 ml/ml, coating 0 nl): 1529
- counts in the polymer coating (plasma 0 ml/ml, coating 4.1 nl): 2095
- counts in the polymer coating (plasma 0 ml/ml, coating 10.2 nl): 3498
- counts in the polymer coating (plasma 0 ml/ml, coating 25.6 nl): 4260
- counts in the polymer coating (plasma 0 ml/ml, coating 64 nl): 5814
- counts in the polymer coating (plasma 0 ml/ml, coating 160 nl): 7292
- counts in the polymer coating (plasma 0 ml/ml, coating 400 nl): 8015
- counts in the polymer coating (plasma 0 ml/ml, coating 1000 nl): 8491
- counts in the polymer coating (plasma 0.0005 ml/ml, coating 0 nl): 639
- counts in the polymer coating (plasma 0.0005 ml/ml, coating 4.1 nl): 1753
- counts in the polymer coating (plasma 0.0005 ml/ml, coating 10.2 nl): 2581
- counts in the polymer coating (plasma 0.0005 ml/ml, coating 25.6 nl): 4428
- counts in the polymer coating (plasma 0.0005 ml/ml, coating 64 nl): 8145
- counts in the polymer coating (plasma 0.0005 ml/ml, coating 160 nl): 12361
- counts in the polymer coating (plasma 0.0005 ml/ml, coating 400 nl): 15727
- counts in the polymer coating (plasma 0.0005 ml/ml, coating 1000 nl): 16960
- counts in the polymer coating (plasma 0.0008 ml/ml, coating 0 nl): 495
- counts in the polymer coating (plasma 0.0008 ml/ml, coating 4.1 nl): 1176
- counts in the polymer coating (plasma 0.0008 ml/ml, coating 10.2 nl): 1649
- counts in the polymer coating (plasma 0.0008 ml/ml, coating 25.6 nl): 3019
- counts in the polymer coating (plasma 0.0008 ml/ml, coating 64 nl): 6029
- counts in the polymer coating (plasma 0.0008 ml/ml, coating 160 nl): 10164
- counts in the polymer coating (plasma 0.0008 ml/ml, coating 400 nl): 13748
- counts in the polymer coating (plasma 0.0008 ml/ml, coating 1000 nl): 15479
- counts in the polymer coating (plasma 0.001 ml/ml, coating 0 nl): 419
- counts in the polymer coating (plasma 0.001 ml/ml, coating 4.1 nl): 972
- counts in the polymer coating (plasma 0.001 ml/ml, coating 10.2 nl): 1545
- counts in the polymer coating (plasma 0.001 ml/ml, coating 25.6 nl): 2658
- counts in the polymer coating (plasma 0.001 ml/ml, coating 64 nl): 5501
- counts in the polymer coating (plasma 0.001 ml/ml, coating 160 nl): 9700
- counts in the polymer coating (plasma 0.001 ml/ml, coating 400 nl): 13183
- counts in the polymer coating (plasma 0.001 ml/ml, coating 1000 nl): 15022
- counts in the polymer coating (plasma 0.003 ml/ml, coating 0 nl): 151
- counts in the polymer coating (plasma 0.003 ml/ml, coating 4.1 nl): 399
- counts in the polymer coating (plasma 0.003 ml/ml, coating 10.2 nl): 603
- counts in the polymer coating (plasma 0.003 ml/ml, coating 25.6 nl): 1258
- counts in the polymer coating (plasma 0.003 ml/ml, coating 64 nl): 2547
- counts in the polymer coating (plasma 0.003 ml/ml, coating 160 nl): 5687
- counts in the polymer coating (plasma 0.003 ml/ml, coating 400 nl): 9284
- counts in the polymer coating (plasma 0.003 ml/ml, coating 1000 nl): 11307
- counts in the polymer coating (plasma 0.005 ml/ml, coating 0 nl): 109
- counts in the polymer coating (plasma 0.005 ml/ml, coating 4.1 nl): 257
- counts in the polymer coating (plasma 0.005 ml/ml, coating 10.2 nl): 428
- counts in the polymer coating (plasma 0.005 ml/ml, coating 25.6 nl): 866
- counts in the polymer coating (plasma 0.005 ml/ml, coating 64 nl): 1719
- counts in the polymer coating (plasma 0.005 ml/ml, coating 160 nl): 3804
- counts in the polymer coating (plasma 0.005 ml/ml, coating 400 nl): 7410
- counts in the polymer coating (plasma 0.005 ml/ml, coating 1000 nl): 10375
- counts in the polymer coating (plasma 0.008 ml/ml, coating 0 nl): 95
- counts in the polymer coating (plasma 0.008 ml/ml, coating 4.1 nl): 212
- counts in the polymer coating (plasma 0.008 ml/ml, coating 10.2 nl): 372
- counts in the polymer coating (plasma 0.008 ml/ml, coating 25.6 nl): 686
- counts in the polymer coating (plasma 0.008 ml/ml, coating 64 nl): 1331
- counts in the polymer coating (plasma 0.008 ml/ml, coating 160 nl): 3035
- counts in the polymer coating (plasma 0.008 ml/ml, coating 400 nl): 5863
- counts in the polymer coating (plasma 0.008 ml/ml, coating 1000 nl): 9044
- counts in the polymer coating (plasma 0.01 ml/ml, coating 0 nl): 90
- counts in the polymer coating (plasma 0.01 ml/ml, coating 4.1 nl): 169
- counts in the polymer coating (plasma 0.01 ml/ml, coating 10.2 nl): 293
- counts in the polymer coating (plasma 0.01 ml/ml, coating 25.6 nl): 523
- counts in the polymer coating (plasma 0.01 ml/ml, coating 64 nl): 1054
- counts in the polymer coating (plasma 0.01 ml/ml, coating 160 nl): 2408
- counts in the polymer coating (plasma 0.01 ml/ml, coating 400 nl): 5093
- counts in the polymer coating (plasma 0.01 ml/ml, coating 1000 nl): 8309
- counts in the polymer coating (plasma 0.02 ml/ml, coating 0 nl): 82
- counts in the polymer coating (plasma 0.02 ml/ml, coating 4.1 nl): 98
- counts in the polymer coating (plasma 0.02 ml/ml, coating 10.2 nl): 182
- counts in the polymer coating (plasma 0.02 ml/ml, coating 25.6 nl): 278
- counts in the polymer coating (plasma 0.02 ml/ml, coating 64 nl): 641
- counts in the polymer coating (plasma 0.02 ml/ml, coating 160 nl): 1394
- counts in the polymer coating (plasma 0.02 ml/ml, coating 400 nl): 3130
- counts in the polymer coating (plasma 0.02 ml/ml, coating 1000 nl): 5582
- counts in the polymer coating (plasma 0.03 ml/ml, coating 0 nl): 62
- counts in the polymer coating (plasma 0.03 ml/ml, coating 4.1 nl): 75
- counts in the polymer coating (plasma 0.03 ml/ml, coating 10.2 nl): 130
- counts in the polymer coating (plasma 0.03 ml/ml, coating 25.6 nl): 237
- counts in the polymer coating (plasma 0.03 ml/ml, coating 64 nl): 409
- counts in the polymer coating (plasma 0.03 ml/ml, coating 160 nl): 988
- counts in the polymer coating (plasma 0.03 ml/ml, coating 400 nl): 2209
- counts in the polymer coating (plasma 0.03 ml/ml, coating 1000 nl): 4228
- counts in the polymer coating (plasma 0.04 ml/ml, coating 0 nl): 55
- counts in the polymer coating (plasma 0.04 ml/ml, coating 4.1 nl): 68
- counts in the polymer coating (plasma 0.04 ml/ml, coating 10.2 nl): 87
- counts in the polymer coating (plasma 0.04 ml/ml, coating 25.6 nl): 153
- counts in the polymer coating (plasma 0.04 ml/ml, coating 64 nl): 342
- counts in the polymer coating (plasma 0.04 ml/ml, coating 160 nl): 722
- counts in the polymer coating (plasma 0.04 ml/ml, coating 400 nl): 1681
- counts in the polymer coating (plasma 0.04 ml/ml, coating 1000 nl): 3295
- counts in the polymer coating (plasma 0.05 ml/ml, coating 0 nl): 47
- counts in the polymer coating (plasma 0.05 ml/ml, coating 4.1 nl): 48
- counts in the polymer coating (plasma 0.05 ml/ml, coating 10.2 nl): 70
- counts in the polymer coating (plasma 0.05 ml/ml, coating 25.6 nl): 153
- counts in the polymer coating (plasma 0.05 ml/ml, coating 64 nl): 296
- counts in the polymer coating (plasma 0.05 ml/ml, coating 160 nl): 588
- counts in the polymer coating (plasma 0.05 ml/ml, coating 400 nl): 1354
- counts in the polymer coating (plasma 0.05 ml/ml, coating 1000 nl): 2501
